In US9266813B2, “Stilbenoid compound as inhibitor for squamous carcinoma and hepatoma and uses thereof” (AnnCare Bio-Tech Center Inc., priority 2013, dated 2016):
Converted amounts (≈) assume the structure as drawn. Like-named read-outs stand apart in the source and are kept apart here.

Columns and labels:
[1] = system: Human normal gingival fibroblasts cells (HGF); experiment: MTT viability of normal gingival fibroblasts (HGF); format: cell-based; conditions: 0, 25, 50 and 100 μM, 72 hours, FIG. 7 (A)
Description: (§1) Human normal gingival fibroblasts cells (HGF) and human normal oral keratinocyte cells (OK) were acquired from Department of Dental Hygiene, China Medical University, Taiwan. HGF and OK were cultivated in DMEM.
(§2) Both HGF and OK cells (1×10^4 cells) were placed into a 96-well plate and were incubated with 0, 25, 50 and 100 μM of compound 2-4 for 24, 48 and 72 hours. For incubation with the autophagy inhibitor, cells were pretreated with […] (3-MA, 10 mM) for 1 hour, followed by treatment with or without compound 2-4 (50 and 75 μM) for 48 hours. After washing the cells, DMEM containing MTT (0.5 mg/mL) was added to detect viability. The cell viability was expressed as % of the control.
(§3) In FIG. 7, (A) indicates HGF cells and (B) indicates OK cells after exposure to various concentrations of compound 2-4 for 72 hours. The cell viability is determined by MTT assay and the data shown represent the mean±S.E.M (n=3).

CAR cells = experiment: MTT assay, antiproliferation on cisplatin-resistant head and neck squamous carcinoma (CAR) cells; format: cell-based, human; conditions: for IC50: Homo sapiens, CAR cells, MTT
Description: The human head and neck carcinoma cell line CAL27 was obtained from American Tissue Culture Collection (ATCC). The cisplatin-resistant cell line CAR (CAL27-cisplatin resistance) was established by clonal selection of CAL27 using 10 cycles of 1 passage treatment with 10-80 μM of cisplatin (Sigma-Aldrich Corp. (St. Louis, Mo., USA) followed by a recovery period of another passage. CAR cells were cultivated in Dulbecco's modified Eagle's medium (DMEM) supplemented with 10% FBS, 100 μg/mL streptomycin, 100 U/mL penicillin G, 2 mM L-glutamine (Gibco by Life Technologies (Carlsbad, Calif., USA)) and 80 μM of cisplatin (Sigma-Aldrich Corp. (St. Louis, Mo., USA).
(§4) Antiproliferations of compound 2-4 were determined by an improved MTT assay. The CAR cells were individually plated at a density of 2×10^4 cells/well onto 96-well plates and treated with Dimethyl sulfoxide (DMSO) alone (0.5% (v/v) in media served as a vehicle control) and various concentrations (0, 25, 50, 75 and 100 μM) of compound 2-4 for 24 and 48 hours. Following the above treatments, the supernatant was discarded before a 100 μL solution of MTT (500 μg/ml) was added to each well for 4 hours at 37 °C. After incubation, the medium was replaced by the addition of 200 μL DMSO to solubilize the violet formazan crystal produced from MTT. The absorbance of the dissolved formazan grained within the cells was measured at 570 nm by a microplate reader to calculate viability (data shown as % of control).
(§5) Please refer to Table 1. Hep3B cells and CAR cells were treated by different concentrations of the compounds of the invention for 48 and 72 hours, and the antiprolifieration effect of such compounds was evaluated using MTT assay. Data are presented as IC50 (μM), the concentration of 50% proliferation-inhibitory effect.
MTT assay was utilized and CAR cells were treated with compound 2-4 in different concentration for 24, 48 and 72 hours. […] The IC50 after 72 hours of treatment was 50 μM.

Hep3B cells = experiment: MTT assay, antiproliferation on Hep3B cells; format: cell-based; conditions: for IC50: Homo sapiens, Hep3B cells, MTT
Description: as §4, §5
The anti-proliferative ability of compound 2-4 in hepatocellular carcinoma was evaluated in Hep3B cells using MTT assay. Hep3B cells were treated with various concentrations of compound 2-4 for 48 and 72 hours.

[2] = system: human normal oral keratinocyte cells (OK); experiment: MTT viability of normal oral keratinocytes (OK); format: cell-based; conditions: 0, 25, 50 and 100 μM, 72 hours, FIG. 7 (B)
Description: as §1, §2, §3

CAR xenograft = experiment: Xenograft antitumor study in CAR xenograft nude mice; format: in vivo, BALB/c nude mice
Source text: All animal experiments of the invention complied with institutional guidelines (Affidavit of Approval of Animal Use Protocol) approved by the Institutional Animal Care and Use Committee (IACUC) of China Medical University (Taichung, Taiwan). All pathogen-free four-week-old male BALB/c nude mice were purchased from the National Laboratory Animal Center (Taipei, Taiwan). These animals were housed at a constant room temperature with a regular 12-hour light/12-hour dark cycle and hereafter fed a standard rodent diet and water ad libitum.
The CAR cells (1×10^7 cells/mouse) in 0.2 mL (1:1) cultural medium and Matrigel (BD Biosciences) were subcutaneously injected into the flank of nude mice. When xenograft tumors reached approximately 50 mm^3 (at day 22 after cell inoculation), thirty two mice were randomly divided into four groups with eight mice in each group. The experimental group were given oral treatments included compound 2-4 at the dosages of 25, 50 and 100 mg/kg body weight, respectively, using an everyday 30 times (dosing regimen: QD×30, p.o.); whereas control group were given orally with 30 μL of DMSO throughout the experimental period. The tumor size (mm^3) from each mouse was determined utilizing a caliper by calculating as 0.5×length×(width)^2. At the end of treatment, all animals were anaesthetized by carbon dioxide (CO2) and sacrificed on 31st day. The tumor tissues from each mouse were removed then measured and weighed individually as previously reported.
Compound 2-4 was evaluated in the CAR xenograft nude mice by oral route (p.o.) at dose of 25, 50, and 100 mg/kg/day in a schedule of QD×30. […] At the 100 mg/kg/day dose of compound 2-4, the weight of CAR tumor was reduced down to 22% that of the vehicle control (FIG. 5).

Water solubility assay = format: physicochemical; conditions: read-out: Water solubility, Content
Source text: The water solubility of the compounds of the present invention can be determined by methods known in the art and the result is shown in Table 3.

[3] = Biochemical analysis of blood of CAR xenograft mice after 30 days of treatment; format: in vivo, BALB/c nude mice
Description: All mice were monitored the relative toxicity of each group after the animals were sacrificed, and whole blood samples were drawn from the heart for biochemical measurements to evaluate the safety of compound 2-4. Briefly, blood was collected from each mouse and allowed to clot and centrifuged at 1000×g for 10 minutes at room temperature for further biochemical tests including total protein, albumin, creatinine, blood urea nitrogen (BUN), uric acid and glucose.
Furthermore, after 30 days of treatment, these mice were sacrificed and their blood samples were collected for biochemical quantification of total protein, albumin, creatinine, blood urea nitrogen, uric acid and glucose.

[4] = 25 mg/kg p.o. QD×30, mean ± S.E.M.
[5] = 50 mg/kg p.o. QD×30, mean ± S.E.M.
[6] = 100 mg/kg p.o. QD×30, mean ± S.E.M.

COc1cc(/C=C/c2ccc(OC(=O)C(C)(CO)CO)cc2)cc(OC)c1 [Compound 2-4, 4-(3,5-dimethoxystyryl)phenyl-3-hydroxy-2-(hydroxymethyl)-2-methylpropanoate]
cell viability of HGF cells [1]: no viability impact is observed | antiproliferative effect on CAR cells (CAR cells; 24, 48 and 72 hours, FIG. 1): concentration- and time-dependent antiproliferative effect | IC50 (CAR cells; 48 hours, read-out: CAR (IC50 (μM)) 48 hours): 73 µM | IC50 (CAR cells; 72 hours, Example 18 text, read-out: IC50 after 72 hours of treatment (FIG. 1)): 50 µM | IC50 (CAR cells; 72 hours, read-out: CAR (IC50 (μM)) 72 hours): 45.2 µM | inhibition on cell viability in Hep3B cells (Hep3B cells; 48 and 72 hours, FIG. 2): concentration-dependent inhibition on cell viability | anticancer activity compared with resveratrol and pterostilbene (Hep3B cells; Hep 3B and CAR cells, Table 1): more potent anticancer activity than resveratrol and pterostilbene | IC50 (Hep3B cells; 48 hours, Example 19 text, read-out: IC50 after 48 hours of treatment (FIG. 2)): 50 µM | IC50 (Hep3B cells; 48 hours, read-out: Hep 3B (IC50 (μM)) 48 hours): 63.5 µM | IC50 (Hep3B cells; 72 hours, read-out: Hep 3B (IC50 (μM)) 72 hours): 43.8 µM | cell viability of OK cells [2]: no viability impact is observed | tumor growth suppression (CAR xenograft; p.o. 25 mg/kg/day, QD×30): Significant tumor growth suppression | weight of CAR tumor relative to vehicle control (CAR xenograft; p.o. 100 mg/kg/day, QD×30, FIG. 5): 22% | effect on CAR tumor weight (CAR xenograft; p.o. 25, 50, 100 mg/kg/day, QD×30, FIG. 5): dose-dependent inhibitory effect | body weight change (CAR xenograft; p.o. 25, 50, 100 mg/kg/day, QD×30, FIG. 6): no significant body weight change | effect on CAR tumor size (CAR xenograft; p.o. 25, 50, 100 mg/kg/day, QD×30, FIGS. 3 and 4): dose-dependent inhibitory effect | solubility (Water solubility assay): 18 µg/mL (≈ 48.3 µM) | Albumin [3, 4]: 3.666 ± 0.052 g/dL | Blood urea nitrogen [3, 4]: 28.200 ± 5.784 mg/dL | Creatinine [3, 4]: 1.133 ± 0.109 mg/dL | Glucose [3, 4]: 181.333 ± 32.067 mg/dL | Total Protein [3, 4]: 5.383 ± 0.117 g/dL | Uric acid [3, 4]: 4.567 ± 0.784 mg/dL | Albumin [3, 5]: 3.417 ± 0.075 g/dL | Blood urea nitrogen [3, 5]: 30.950 ± 1.265 mg/dL | Creatinine [3, 5]: 0.910 ± 0.077 mg/dL | Glucose [3, 5]: 172.500 ± 6.504 mg/dL | Total Protein [3, 5]: 5.583 ± 0.376 g/dL | Uric acid [3, 5]: 5.450 ± 0.878 mg/dL | Albumin [3, 6]: 3.400 ± 0.089 g/dL | Blood urea nitrogen [3, 6]: 29.250 ± 3.855 mg/dL | Creatinine [3, 6]: 0.830 ± 0.128 mg/dL | Glucose [3, 6]: 196.500 ± 8.643 mg/dL | Total Protein [3, 6]: 5.283 ± 0.194 g/dL | Uric acid [3, 6]: 5.050 ± 1.882 mg/dL | toxicity when orally administered ([3]; CAR xenograft mice, oral, 30 days): very low toxicity | blood analysis result versus vehicle control mice ([3]; after 30 days of oral treatment, Table 2): no significant difference in blood analysis result
